Data: US12077503B2, “Substituted cyclic amides and their use as herbicides” (FMC CORPORATION, priority 2015, dated 2024)

What was measured:
Format in all cases: in vivo
[1] = test system: corn (Zea mays); test: Test G Post-Emergence Protocol; conditions: Zea mays, post-emergence, 312 h, read-out: Corn damage rating
How it was run: (§1)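 Foliar application was made 8 days after sowing, using an aqueous spray of the active in acetone/water (50:50) with 0.5% Tween 20, at doses of 15.625, 62.5 or 250 g/ha. Injury was assessed 13 days later, where 100 meant the plant was fully damaged.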

[2] = test system: ivy-leaved morning glory (Ipomoea hederacea); test: Test G Post-Emergence Protocol; conditions: Ipomoea, post-emergence, 312 h, read-out: Morningglory, Ivy-leaved damage rating
How it was run: as §1

[3] = test system: giant foxtail (Setaria faberi); test: Test G Post-Emergence Protocol; conditions: Setaria faberi, post-emergence, 312 h, read-out: Foxtail, Giant damage rating
How it was run: as §1

[4] = test system: velvetleaf (Abutilon theophrasti); test: Test G Post-Emergence Protocol; conditions: Abutilon theophrasti, post-emergence, 312 h, read-out: Velvetleaf damage rating
How it was run: as §1

[5] = test system: redroot pigweed (Amaranthus retroflexus); test: Test G Post-Emergence Protocol; conditions: Amaranthus retroflexus, post-emergence, 312 h, read-out: Pigweed, Redroot damage rating
How it was run: as §1

[6] = test system: barnyardgrass (Echinochloa crus-galli); test: Test G Post-Emergence Protocol; conditions: Echinochloa crus-galli, post-emergence, 312 h, read-out: Barnyardgrass damage rating
How it was run: as §1

[7] = test system: corn (Zea mays); test: Test G Pre-Emergence Protocol; conditions: Zea mays, pre-emergence, 312 h, evaluated after 13 days
How it was run: (§2)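 Glasshouse pre-emergence test: soil-sown seeds, sprayed after 1 d at 15.625, 62.5 or 250 g/ha. Conditions 24/16° C day/night, 14 h light, 65% humidity, watering twice daily. Rating 13 d post-spray (100 = total damage).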

[8] = test system: ivy-leaved morning glory (Ipomoea hederacea); test: Test G Pre-Emergence Protocol; conditions: Ipomoea, pre-emergence, 312 h, evaluated after 13 days
How it was run: as §2

[9] = test system: giant foxtail (Setaria faberi); test: Test G Pre-Emergence Protocol; conditions: Setaria faberi, pre-emergence, 312 h, evaluated after 13 days
How it was run: as §2

[10] = test system: velvetleaf (Abutilon theophrasti); test: Test G Pre-Emergence Protocol; conditions: Abutilon theophrasti, pre-emergence, 312 h, evaluated after 13 days
How it was run: as §2

[11] = test system: redroot pigweed (Amaranthus retroflexus); test: Test G Pre-Emergence Protocol; conditions: Amaranthus retroflexus, pre-emergence, 312 h, evaluated after 13 days
How it was run: as §2

[12] = test system: barnyardgrass (Echinochloa crus-galli); test: Test G Pre-Emergence Protocol; conditions: Echinochloa crus-galli, pre-emergence, 312 h, evaluated after 13 days
How it was run: as §2

[13] = 15.625 g ai/ha, evaluated after 13 days (100=total damage to plant; 0=no damage to plant)
[14] = 62.5 g ai/ha, evaluated after 13 days, 100=total damage to plant, 0=no damage to plant
[15] = 250 g ai/ha, evaluated after 13 days, 100=total damage to plant, 0=no damage to plant

Question: What does the source list for `Cc1cc(C)cc([C@H]2CN(C)C(=O)[C@@H]2C(=O)Nc2ccccc2S(C)(=O)=O)c1` (racemic) [Compound 1727]?
Answer: plant injury at 15.625 g/ha [1, 13]: 0%; plant injury at 62.5 g/ha [1, 14]: 0%; plant injury at 250 g/ha [1, 15]: 10%; pest or weed control at 15.625 g/ha [2, 13]: 0%; pest or weed control at 62.5 g/ha [2, 14]: 30%; pest or weed control at 250 g/ha [2, 15]: 50%; pest or weed control at 15.625 g/ha [3, 13]: 30%; pest or weed control at 62.5 g/ha [3, 14]: 80%; pest or weed control at 250 g/ha [3, 15]: 80%; pest or weed control at 15.625 g/ha [4, 13]: 0%; pest or weed control at 62.5 g/ha [4, 14]: 0%; pest or weed control at 250 g/ha [4, 15]: 10%; pest or weed control at 15.625 g/ha [5, 13]: 0%; pest or weed control at 62.5 g/ha [5, 14]: 0%; pest or weed control at 250 g/ha [5, 15]: 0%; pest or weed control at 15.625 g/ha [6, 13]: 20%; pest or weed control at 62.5 g/ha [6, 14]: 70%; pest or weed control at 250 g/ha [6, 15]: 70%; plant injury at 15.625 g/ha ([7]; 15.625 g ai/ha, read-out: Corn damage rating (100=total damage to plant; 0=no damage to plant)): 0%; plant injury at 62.5 g/ha ([7]; 62.5 g ai/ha, 100=total damage to plant, 0=no damage to plant, read-out: Corn damage rating): 0%; plant injury at 250 g/ha ([7]; 250 g ai/ha, read-out: Corn damage rating (100=total damage to plant; 0=no damage to plant)): 0%; pest or weed control at 15.625 g/ha ([8]; 15.625 g ai/ha, read-out: Morningglory, Ivy-leaved damage rating (100=total damage to plant; 0=no damage to plant)): 0%; pest or weed control at 62.5 g/ha ([8]; 62.5 g ai/ha, 100=total damage to plant, 0=no damage to plant, read-out: Morningglory, Ivy-leaved damage rating): 0%; pest or weed control at 250 g/ha ([8]; 250 g ai/ha, read-out: Morningglory, Ivy-leaved damage rating (100=total damage to plant; 0=no damage to plant)): 10%; pest or weed control at 15.625 g/ha ([9]; 15.625 g ai/ha, read-out: Foxtail, Giant damage rating (100=total damage to plant; 0=no damage to plant)): 50%; pest or weed control at 62.5 g/ha ([9]; 62.5 g ai/ha, 100=total damage to plant, 0=no damage to plant, read-out: Foxtail, Giant damage rating): 60%; pest or weed control at 250 g/ha ([9]; 250 g ai/ha, read-out: Foxtail, Giant damage rating (100=total damage to plant; 0=no damage to plant)): 80%; pest or weed control at 15.625 g/ha ([10]; 15.625 g ai/ha, read-out: Velvetleaf damage rating (100=total damage to plant; 0=no damage to plant)): 0%; pest or weed control at 62.5 g/ha ([10]; 62.5 g ai/ha, 100=total damage to plant, 0=no damage to plant, read-out: Velvetleaf damage rating): 0%; pest or weed control at 250 g/ha ([10]; 250 g ai/ha, read-out: Velvetleaf damage rating (100=total damage to plant; 0=no damage to plant)): 0%; pest or weed control at 15.625 g/ha ([11]; 15.625 g ai/ha, read-out: Pigweed, Redroot damage rating (100=total damage to plant; 0=no damage to plant)): 0%; pest or weed control at 62.5 g/ha ([11]; 62.5 g ai/ha, 100=total damage to plant, 0=no damage to plant, read-out: Pigweed, Redroot damage rating): 0%; pest or weed control at 250 g/ha ([11]; 250 g ai/ha, read-out: Pigweed, Redroot damage rating (100=total damage to plant; 0=no damage to plant)): 30%; pest or weed control at 15.625 g/ha ([12]; 15.625 g ai/ha, read-out: Barnyardgrass damage rating (100=total damage to plant; 0=no damage to plant)): 30%; pest or weed control at 62.5 g/ha ([12]; 62.5 g ai/ha, 100=total damage to plant, 0=no damage to plant, read-out: Barnyardgrass damage rating): 40%; pest or weed control at 250 g/ha ([12]; 250 g ai/ha, read-out: Barnyardgrass damage rating (100=total damage to plant; 0=no damage to plant)): 80%
